Data reported in US9636329B2, “Methods of treating cancer with glut inhibitors and oxidative phosphorylation inhibitors” (Northwestern University, priority 2012, dated 2017).

Columns and labels:
[1] = tested on: U266 cells; test: Cell death by DAPI staining with doxorubicin at 11 mM or 0.5 mM glucose (FIG. 1C); assay type: cell-based; settings: resistant U266 cells; glucose-free culture (0.5 mM vs 11 mM glucose); 48 hours
Procedure: (§1) FIG. 1. Glucose metabolism sustains myeloma cell proliferation, viability and promotes chemoresistance: (A) Primary myeloma cells, normal B lymphocytes (NBL) and four MM cell lines were cultured in medium containing 0 or 5 mM glucose for 48 (NBL, MM cell lines) or 72 (MM Patient) hours. Cell viability was determined by flow cytometric analysis of AnnexinV/DAPI staining and normalized to 5 mM samples. Data are means±SEM (n=2 for MM cell lines and NBL. n=1 for MM Patient sample). (B) MM cell lines were cultured in various glucose concentrations for 72 hours. Viable cell quantities were determined by MTS assay (represented by absorbance at 490 nm) and normalized to 5 mM samples. U266 cells (C) and normal PBMC (D) were cultured in 11 mM or 0.5 mM glucose-containing medium for 48 hours in the presence of the indicated concentrations of doxorubicin. Cell death was determined by OAPI staining. […] Glucose consumption rates and lactate production rates were determined and normalized to control shRNA-expressing cells. (G-I) Cells from part (E) were analyzed for viability and proliferation. (J) JJN3 cells transduced with control or GLUT1-targeted shRNA and analyzed for viability and proliferation. Viable cell densities are expressed as fold change relative to the day 0 reading of control shRNA-expressing cells. Cells from parts G-J were evaluated for viability via trypan blue exclusion. […]

[2] = tested on: normal PBMC; test: Cell death by DAPI staining with doxorubicin at 11 mM or 0.5 mM glucose (FIG. 1D); assay type: cell-based; settings: 48 hours
Procedure: as §1

[3] = tested on: JJN3 cells; test: Oxygen consumption rate (OCR), SeaHorse XF24 bioanalyzer; assay type: cell-based; settings: resistant JJN3 cells; ritonavir alone
Procedure: (§2) FIG. 3. […] Cellular viability was assessed before OCR measurements and 400,000 viable cells were plated in 5 replicates. Result is representative of an n=3.

[4] = tested on: L363 cells; test: as above; assay type: cell-based; settings: sensitive L363 cells; ritonavir 20 uM; 17 hrs
Procedure: as §2

[5] = tested on: NCI-60 cell lines; test: NCI-60 panel viability, 48 hr MTS assay (FIG. 5); assay type: cell-based; settings: read-out: median reduction of viability
Excerpt: FIG. 5. […] 48 hr MTS assay, n=3+/−SEM, p<0.05
GLUT4 activity may be prevalent across multiple cancers. To examine the dependency of other cancers on GLUT4 activity, we utilized the NCI-60 cancer cell line panel. […] The NCI-60 lines are representative of genetic heterogeneity within each cancer group. Therefore, it is possible that we may detect a role for GLUT4 in a subset of cancers within each group connected to a specific genotype.

[6] = tested on: MM; test: Ritonavir anti-myeloma effects in myeloma cell lines and patient samples; assay type: cell-based
[7] = achieved in humans; read-out: Cmax plasma concentration; cited from earlier work
[8] = biological target: T1, GLUT4 (Homo sapiens, UniProt P14672); settings: cited from earlier work
T1 sequence (P14672 1-509): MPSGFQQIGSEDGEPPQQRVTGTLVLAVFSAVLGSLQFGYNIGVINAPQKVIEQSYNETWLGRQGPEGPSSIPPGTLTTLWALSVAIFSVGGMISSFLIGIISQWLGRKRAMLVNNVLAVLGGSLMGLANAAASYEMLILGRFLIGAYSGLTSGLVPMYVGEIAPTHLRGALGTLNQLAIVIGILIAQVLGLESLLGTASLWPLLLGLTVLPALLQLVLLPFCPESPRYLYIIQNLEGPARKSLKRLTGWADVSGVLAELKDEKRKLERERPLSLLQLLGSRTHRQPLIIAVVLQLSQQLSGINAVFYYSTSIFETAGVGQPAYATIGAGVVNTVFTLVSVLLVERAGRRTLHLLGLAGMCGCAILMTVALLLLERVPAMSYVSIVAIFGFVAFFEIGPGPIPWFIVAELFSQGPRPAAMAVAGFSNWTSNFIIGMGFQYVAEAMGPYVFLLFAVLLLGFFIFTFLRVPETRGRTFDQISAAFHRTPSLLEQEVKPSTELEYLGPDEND

[9] = biological target: T2, GLUT1 (Homo sapiens, UniProt P11166); settings: cited from earlier work
T2 sequence (P11166 1-492): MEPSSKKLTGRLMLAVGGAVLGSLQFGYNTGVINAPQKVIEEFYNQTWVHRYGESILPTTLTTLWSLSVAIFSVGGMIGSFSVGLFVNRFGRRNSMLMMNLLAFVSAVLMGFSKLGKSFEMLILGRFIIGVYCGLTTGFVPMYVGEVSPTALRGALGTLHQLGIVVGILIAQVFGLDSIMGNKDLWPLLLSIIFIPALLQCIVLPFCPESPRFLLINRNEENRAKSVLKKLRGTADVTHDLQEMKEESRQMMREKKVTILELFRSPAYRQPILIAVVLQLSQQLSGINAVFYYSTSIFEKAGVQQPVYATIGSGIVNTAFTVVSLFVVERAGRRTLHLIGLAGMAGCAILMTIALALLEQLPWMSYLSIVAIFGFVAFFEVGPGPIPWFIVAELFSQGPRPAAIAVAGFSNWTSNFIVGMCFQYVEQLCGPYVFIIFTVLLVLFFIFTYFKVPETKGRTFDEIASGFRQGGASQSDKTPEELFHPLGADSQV

[10] = tested on: JJN3 cells; settings: JJN3 cultured in the absence of glucose; metformin 5 mM; 72 hrs
Excerpt: (§3) To investigate whether mitochondrial oxidative phosphorylation can render MM cells resistant to glucose-deprivation we treated cells with metformin. which is a known mitochondrial complex 1 inhibitor [25-27]).

[11] = tested on: L363 cells; test: Viability of MM cell lines by Annexin/DAPI staining (FIG. 2); assay type: cell-based; settings: glucose-deprived L363 cells + galactose 10 mM; metformin 5 mM; 72 hrs
Excerpt: as §3

[12] = tested on: MM cells; test: Viability of MM cells, glucose deprivation / ritonavir / metformin; assay type: cell-based; settings: absence of glucose; metformin 5 mM; 72 hrs
Excerpt: as §3

COc1cccc2c1C(=O)c1c(O)c3c(c(O)c1C2=O)C[C@@](O)(C(=O)CO)C[C@@H]3O[C@H]1C[C@H](N)[C@H](O)[C@H](C)O1 [doxorubicin]
sensitivity to doxorubicin (cell death) [1]: sensitizes
impact of doxorubicin on normal PBMC (cell death) [2]: not impacted

CC(C)c1nc(CN(C)C(=O)N[C@H](C(=O)N[C@@H](Cc2ccccc2)C[C@H](O)[C@H](Cc2ccccc2)NC(=O)OCc2cncs2)C(C)C)cs1 [ritonavir]
oxygen consumption rate (OCR) [3]: increase in oxygen consumption rate
oxygen consumption rate (OCR) [4]: significant reduction in OCR
cytotoxicity at 20 µM [5]: ≥ 50%
chemosensitization of resistant MM to doxorubicin [6]: chemosensitizing
glucose inhibitory and growth inhibitory effects in MM ([6]; physiologically achievable doses of ritonavir): significant glucose inhibitory and growth inhibitory effects
Cmax [7]: 16 µM
inhibition of cytoplasmic glucose binding site [8]: competitively inhibit
inhibition of cytoplasmic glucose binding site [9]: competitively inhibit

CN(C)C(=N)N=C(N)N [metformin]
sensitization of glucose deprived cells to metformin (viability) [10]: sensitized to metformin
reversal of galactose rescue of viability [11]: reverses the metabolic rescue provided by galactose
sensitization of glucose deprived MM cells to metformin (viability) [12]: sensitized to metformin
